{"source": "BindingDB's records for patent US20240018140", "about": "(Merck Sharp & Dohme, 2024)", "molecular_target": "T1, Ceramide glucosyltransferase (Homo sapiens, UniProt Q16739)", "T1 sequence (Q16739 whole entry)": "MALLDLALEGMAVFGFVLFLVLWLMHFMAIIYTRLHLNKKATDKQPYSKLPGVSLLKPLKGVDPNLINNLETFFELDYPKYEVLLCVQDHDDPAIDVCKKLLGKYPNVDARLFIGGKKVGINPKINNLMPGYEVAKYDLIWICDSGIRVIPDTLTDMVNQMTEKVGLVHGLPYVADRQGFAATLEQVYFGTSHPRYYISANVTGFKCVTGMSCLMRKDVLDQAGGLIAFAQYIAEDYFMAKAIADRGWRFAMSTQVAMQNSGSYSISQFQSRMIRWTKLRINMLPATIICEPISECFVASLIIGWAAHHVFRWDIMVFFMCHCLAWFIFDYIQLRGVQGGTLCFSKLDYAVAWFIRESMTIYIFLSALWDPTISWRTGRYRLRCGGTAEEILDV", "assay": "UDP-Glo Glucosylceramide Synthase Biochemical Assay", "procedure": "Using Promega's UDP-Glo Glycosyltransferase assay kit (Promega Corporation, Madison, WI, USA (Promega)), GCS activity was indirectly measured by detecting the amount of UDP produced. An aliquot of GCS enzyme (1.5 μg crude golgi preparation, total protein) and titrated test compound were aliquoted to each well and incubated for 30 minutes at room temperature. […] An equivalent volume of substrate mixture was then added to each well. Following a 20 h incubation at room temperature to allow for GCS turnover of substrate, an equal volume of UDP detection reagent (Promega) was added to each well and incubated for an additional 75 minutes at room temperature to simultaneously convert the accumulated UDP product into ATP and generate light in a luciferase reaction. The generated light was detected using a luminometer."}
{"smiles": "COCC1(NC(=O)c2cn3cc(Cl)cc(-c4ccccc4OCC(F)(F)F)c3n2)CC1", "note": "[US20240018140, Compound 6]", "values": [{"measurement": "EC50", "result": 2.4, "unit": "nM"}]}
{"smiles": "CN1CCN(C(=O)c2cn3cc(Cl)cc(-c4ccccc4OCC(F)(F)F)c3n2)CC1(C)C", "note": "[US20240018140, Compound 7]", "values": [{"measurement": "EC50", "result": 1.2, "unit": "nM"}]}
